Assay results from publication PMC12655637, “Design, Synthesis, and Mechanistic Study of Novel Ciprofloxacin/Thiazole Chalcone Hybrids as Potential Anticancer Agents” (Pharmaceuticals, 2025).

Tests used:
CCRF-CEM = test: NCI-60 screening, one-dose (10 µM) and five-dose, SRB; type: cell-based, human; settings: Homo sapiens, 10 μM, Leukemia, read-out: Growth percentage
K-562 = test: as above; type: cell-based, human; settings: Homo sapiens, K562, 10 μM; K-562, Leukemia; read-out: Growth percentage
MOLT-4 = test: as above; type: cell-based, human; settings: Homo sapiens; 10 μM; MOLT-4, Leukemia; read-out: Growth percentage
SR = test: as above; type: cell-based, human; settings: 10 μM, Leukemia
EKVX = test: as above; type: cell-based, human; settings: Homo sapiens, 10 μM, Non-Small-Cell Lung Cancer, read-out: Growth percentage
HOP-62 = test: as above; type: cell-based, human; settings: Homo sapiens, HOP-62, 10 μM; HOP-62, Non-Small-Cell Lung Cancer; read-out: Growth percentage
HOP-92 = test: as above; type: cell-based, human; settings: Homo sapiens; 10 μM; HOP-92, Non-Small-Cell Lung Cancer; read-out: Growth percentage
NCI-H522 = test: as above; type: cell-based, human; settings: Homo sapiens; 10 μM; NCI-H522, Non-Small-Cell Lung Cancer; read-out: Growth percentage
HCT-116 = test: as above; type: cell-based, human; settings: Homo sapiens, HCT-116, 10 μM; HCT-116, Colon Cancer; read-out: Growth percentage
SF-268 = test: as above; type: cell-based, human; settings: Homo sapiens; 10 μM; SF-268, CNS Cancer; read-out: Growth percentage
SF-295 = test: as above; type: cell-based, human; settings: Homo sapiens; 10 μM; SF-295, CNS Cancer; read-out: Growth percentage
SF-539 = test: as above; type: cell-based, human; settings: Homo sapiens, SF-539, 10 μM; SF-539, CNS Cancer; read-out: Growth percentage
SNB-19 = test: as above; type: cell-based; settings: Homo sapiens; 10 μM; SNB-19, CNS Cancer; read-out: Growth percentage
SNB-75 = test: as above; type: cell-based, human; settings: Homo sapiens; 10 μM; SNB-75, CNS Cancer; read-out: Growth percentage
U251 = test: as above; type: cell-based, human; settings: Homo sapiens, U-251; 10 μM; U251, CNS Cancer; read-out: Growth percentage
M14 = test: as above; type: cell-based, human; settings: Homo sapiens; 10 μM; M14, Melanoma; read-out: Growth percentage
MDA-MB-435 = test: as above; type: cell-based; settings: Homo sapiens, MDA-MB-435, read-out: Growth percentage, 10 μM; MDA-MB-435, Melanoma
SK-MEL-28 = test: as above; type: cell-based, human; settings: Homo sapiens; 10 μM; SK-MEL-28, Melanoma; read-out: Growth percentage
UACC-257 = test: as above; type: cell-based, human; settings: Homo sapiens; 10 μM; UACC-257, Melanoma; read-out: Growth percentage
UACC-62 = test: as above; type: cell-based; settings: Homo sapiens; 10 μM; UACC-62, Melanoma; read-out: Growth percentage
OVCAR-4 = test: as above; type: cell-based, human; settings: Homo sapiens; 10 μM; OVCAR-4, Ovarian Cancer; read-out: Growth percentage
OVCAR-5 = test: as above; type: cell-based, human; settings: 10 μM; OVCAR-5, Ovarian Cancer
OVCAR-8 = test: as above; type: cell-based, human; settings: Homo sapiens; 10 μM; OVCAR-8, Ovarian Cancer; read-out: Growth percentage
NCI/ADR-RES = test: as above; type: cell-based, human; settings: Homo sapiens, 10 μM, Ovarian Cancer, read-out: Growth percentage
786−0 = test: as above; type: cell-based, human; settings: Homo sapiens; 10 μM; 786−0, Renal Cancer; read-out: Growth percentage
A498 = test: as above; type: cell-based; settings: Homo sapiens, A498, 10 μM; A498, Renal Cancer; read-out: Growth percentage
DU-145 = test: as above; type: cell-based, human; settings: Homo sapiens; 10 μM; DU-145, Prostate Cancer; read-out: Growth percentage
MCF7 = test: as above; type: cell-based, human; settings: Homo sapiens, MCF7, 10 μM; MCF7, Breast Cancer; read-out: Growth percentage
BT-549 = test: as above; type: cell-based; settings: Homo sapiens; 10 μM; BT-549, Breast Cancer; read-out: Growth percentage
T-47D = test: as above; type: cell-based, human; settings: 10 μM, Breast Cancer
[1] = test system: 60 human cancer cell lines; test: NCI-60 screening, full panel (mean growth, MID a, ranges over all lines); settings: Homo sapiens, read-out: Mean growth percentage
Protocol: The screening was performed in accordance with the protocols set forth by the Drug Evaluation Department of the National Cancer Institute (NCI), Bethesda, USA, for in vitro anticancer efficacy at a single concentration of 10 µM against a panel of 60 cancer cell lines derived from nine distinct organs (https://dctd.cancer.gov/data-tools-biospecimens/data (accessed on 15 March 2023 and 6 January 2024)) [37].
The log10 GI50, log10 TGI, and log10 LC50 values were subsequently calculated as the averages of the log10 values of the respective individual GI50, TGI, and LC50 measurements. Negative numbers signified the most sensitive cell lines.
One way to measure a compound’s selectivity is to divide its subpanel MID^b (in μM) by the MID^a (in μM), which is the average sensitivity of all cell lines to the test agent.
At the National Cancer Institute (NCI) in Bethesda, USA, researchers examined the anticancer potential of the target compounds under investigation using nine panels of sixty different cell lines obtained from nine different cancers that were housed in the NCI library. Following the protocols laid out by the National Cancer Institute (https://dctd.cancer.gov/data-tools-biospecimens/data (accessed on 15 March 2023 and 6 January 2024)), the screening procedures were carried out [37]. The anticancer screening was carried out at a single dose of 10^−5 M; the results obtained were expressed as growth inhibition (%).
The anti-cancer potential of the tested compounds was evaluated at the National cancer institute (NCI), Bethesda, USA, against 9 panels of 60 various cell lines derived from nine human tumours available usually at NCI library. The procedures for the screening were described in details in NCI website (dttp://www.dtp.nci.nih.gov.) and were done according to NCI protocols. The anticancer screening was carried out at single dose of 10^-5 M. The results obtained as growth inhibition (%).
Cell lines were grown in Roswell Park Memorial Institute medium (RPMI) with 5% fetal bovine serum and 2% μM L-glutamine. Cancer cells are inoculated into 96 well microtiter plates in 100 μL at plating densities ranging from 5000 to 40,000 cells/well depending on the doubling time of individual cell lines. Then microtiter plates are incubated at 37 °C, 5% CO2, 95% air and 100% relative humidity for 24 h prior to the addition of the tested compounds. After 24 h, two plates of each cell line are fixed in situ with trichloroacetic acid (TCA). The tested compounds were dissolved in dimethyl sulfoxide (DMSO) and stored in the freezer prior to use. An aliquot of frozen drug concentrate is diluted to the desired concentration with complete medium containing 50 μg/mL gentamicin.

Structure (SMILES)	activity at 10 µM (CCRF-CEM)	activity at 10 µM (K-562)	activity at 10 µM (MOLT-4)	Growth percentage (SR)	activity at 10 µM (EKVX)	activity at 10 µM (HOP-62)	activity at 10 µM (HOP-92)	activity at 10 µM (NCI-H522)	activity at 10 µM (HCT-116)	activity at 10 µM (SF-268)	activity at 10 µM (SF-295)	activity at 10 µM (SF-539)	activity at 10 µM (SNB-19)	activity at 10 µM (SNB-75)	activity at 10 µM (U251)	activity at 10 µM (M14)	activity at 10 µM (MDA-MB-435)	activity at 10 µM (SK-MEL-28)	activity at 10 µM (UACC-257)	activity at 10 µM (UACC-62)	other results
Cc1nc(SCC(=O)N2CCN(c3cc4c(cc3F)c(=O)c(C(=O)O)cn4C3CC3)CC2)sc1C(=O)/C=C/c1ccc([N+](=O)[O-])cc1 [Compound 4h, (E)-1-Cyclopropyl-6-fluoro-7-(4-(2-((4-methyl-5-(3-(4-nitrophenyl)acryloyl)thiazol-2-yl)thio)acetyl)piperazin-1-yl)-4-oxo-1,4-dihydroquinoline-3-carboxylic Acid]	45.7%	28.9%	62.7%	23.8%	113%	88.3%	126%	27.9%	33.8%	81.1%	116%	67.9%	72.2%	91.2%	59.9%	70.5%	88.4%	60%	82.6%	59%	activity at 10 µM (OVCAR-4): 89.2%; Growth percentage (OVCAR-5): 121.1%; activity at 10 µM (OVCAR-8): 68.9%; activity at 10 µM (NCI/ADR-RES): 88.8%; activity at 10 µM (786−0): 87.6%; activity at 10 µM (A498): 125%; activity at 10 µM (DU-145): 85.3%; activity at 10 µM (MCF7): 7.2%; activity at 10 µM (BT-549): 83.9%; Growth percentage (T-47D): 64.1%; activity at 10 µM [1]: 77.6%
Cc1nc(SCC(=O)N2CCN(c3cc4c(cc3F)c(=O)c(C(=O)O)cn4C3CC3)CC2)sc1C(=O)/C=C/c1ccc(N(C)C)cc1 [Compound 4i, (E)-1-Cyclopropyl-7-(4-(2-((5-(3-(4-(dimethylamino)phenyl)acryloyl)-4-methylthiazol-2-yl)thio)acetyl)piperazin-1-yl)-6-fluoro-4-oxo-1,4-dihydroquinoline-3-carboxylic Acid]	90.6%	61.3%	89.2%	64.5%	110%	105%	91.7%	78.5%	2.6%	140%	91.4%	74.4%	88.6%	104%	48%	75.9%	26.6%	95.9%	108%	79.9%	activity at 10 µM (OVCAR-4): 102%; Growth percentage (OVCAR-5): 102.5%; activity at 10 µM (OVCAR-8): 76.5%; activity at 10 µM (NCI/ADR-RES): 97.1%; activity at 10 µM (786−0): 59.2%; activity at 10 µM (A498): 126%; activity at 10 µM (DU-145): 147%; activity at 10 µM (MCF7): 17.3%; activity at 10 µM (BT-549): 12.9%; Growth percentage (T-47D): 88.2%; activity at 10 µM [1]: 83.9%
COc1ccc(/C=C/C(=O)c2sc(SCC(=O)N3CCN(c4cc5c(cc4F)c(=O)c(C(=O)O)cn5C4CC4)CC3)nc2C)cc1 [Compound 4j, (E)-1-Cyclopropyl-6-fluoro-7-(4-(2-((5-(3-(4-methoxyphenyl)acryloyl)-4-methylthiazol-2-yl)thio)acetyl)piperazin-1-yl)-4-oxo-1,4-dihydroquinoline-3-carboxylic Acid]	110%	98.3%	99.7%	88.9%	103%	98.3%	105%	99%	103%	148%	101%	97.5%	103%	86.2%	107%	109%	108%	114%	114%	111%	activity at 10 µM (OVCAR-4): 101%; Growth percentage (OVCAR-5): 110.0%; activity at 10 µM (OVCAR-8): 94.6%; activity at 10 µM (NCI/ADR-RES): 109%; activity at 10 µM (786−0): 88.6%; activity at 10 µM (A498): 117%; activity at 10 µM (DU-145): 113%; activity at 10 µM (MCF7): 93.3%; activity at 10 µM (BT-549): 102%; Growth percentage (T-47D): 94.7%; activity at 10 µM [1]: 105%
